Assay results reported in ChEMBL document CHEMBL3352252, “Design, synthesis and molecular modeling of biquinoline-pyridine hybrids as a new class of potential EGFR and HER-2 kinase inhibitors” (Bioorg Med Chem Lett, 2014).
pIC50: −log10 of the molar value.

Columns and labels:
A549 = test: Antiproliferative activity against human A549 cells after 48 hrs by MTT assay; assay type: functional, cell-based; conditions: A549, 48 h
HepG2 = test: Antiproliferative activity against human HepG2 cells after 48 hrs by MTT assay; assay type: functional, cell-based; conditions: HepG2, 48 h
[1] = molecular target: Receptor tyrosine-protein kinase erbB-2 (Homo sapiens, UniProt P04626); test: Inhibition of histidine-tagged recombinant HER2 (unknown origin) expressed in Sf9 cells assessed as reduction in enzyme autophosphorylation by DELFIA/time-resolved fluorometry
Receptor tyrosine-protein kinase erbB-2, sequence (P04626 whole entry, the tested form may be a part): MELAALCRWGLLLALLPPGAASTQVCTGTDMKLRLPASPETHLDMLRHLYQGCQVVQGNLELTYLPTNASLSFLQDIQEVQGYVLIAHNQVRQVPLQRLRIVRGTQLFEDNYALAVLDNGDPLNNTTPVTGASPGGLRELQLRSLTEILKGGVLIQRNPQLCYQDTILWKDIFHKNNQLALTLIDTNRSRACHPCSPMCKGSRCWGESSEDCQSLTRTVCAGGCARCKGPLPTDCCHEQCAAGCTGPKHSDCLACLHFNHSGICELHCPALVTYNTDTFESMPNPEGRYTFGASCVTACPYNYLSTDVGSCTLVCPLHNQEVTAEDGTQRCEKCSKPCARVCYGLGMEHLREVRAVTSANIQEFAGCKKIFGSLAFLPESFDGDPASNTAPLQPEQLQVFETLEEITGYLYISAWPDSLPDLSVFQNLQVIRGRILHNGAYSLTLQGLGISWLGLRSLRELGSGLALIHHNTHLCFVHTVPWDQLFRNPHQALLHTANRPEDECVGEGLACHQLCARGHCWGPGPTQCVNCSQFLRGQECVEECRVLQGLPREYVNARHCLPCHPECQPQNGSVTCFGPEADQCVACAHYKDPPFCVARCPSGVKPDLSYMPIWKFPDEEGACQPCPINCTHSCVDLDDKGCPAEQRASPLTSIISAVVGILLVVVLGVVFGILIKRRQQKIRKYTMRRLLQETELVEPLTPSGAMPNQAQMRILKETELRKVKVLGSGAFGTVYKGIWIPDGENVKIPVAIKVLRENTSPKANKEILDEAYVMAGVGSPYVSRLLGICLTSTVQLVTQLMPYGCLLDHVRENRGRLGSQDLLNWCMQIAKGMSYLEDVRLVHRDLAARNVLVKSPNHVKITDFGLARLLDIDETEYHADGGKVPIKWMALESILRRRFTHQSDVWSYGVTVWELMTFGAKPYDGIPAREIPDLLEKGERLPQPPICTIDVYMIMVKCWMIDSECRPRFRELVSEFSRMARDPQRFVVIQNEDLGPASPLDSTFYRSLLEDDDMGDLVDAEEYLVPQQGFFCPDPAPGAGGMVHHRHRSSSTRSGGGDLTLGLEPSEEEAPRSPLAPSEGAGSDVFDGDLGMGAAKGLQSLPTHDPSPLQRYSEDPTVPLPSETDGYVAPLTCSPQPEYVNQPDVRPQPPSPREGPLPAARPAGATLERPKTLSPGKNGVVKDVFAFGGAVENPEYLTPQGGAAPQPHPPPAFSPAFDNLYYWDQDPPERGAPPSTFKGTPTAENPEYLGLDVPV

[2] = molecular target: Epidermal growth factor receptor (Homo sapiens, UniProt P00533); test: Inhibition of histidine-tagged recombinant EGFR cytoplasmic domain (amino acids 645-1186) (unknown origin) expressed in Sf9 cells assessed as reduction in enzyme autophosphorylation by DELFIA/time-resolved fluorometry
Epidermal growth factor receptor, sequence (P00533 whole entry, the tested form may be a part): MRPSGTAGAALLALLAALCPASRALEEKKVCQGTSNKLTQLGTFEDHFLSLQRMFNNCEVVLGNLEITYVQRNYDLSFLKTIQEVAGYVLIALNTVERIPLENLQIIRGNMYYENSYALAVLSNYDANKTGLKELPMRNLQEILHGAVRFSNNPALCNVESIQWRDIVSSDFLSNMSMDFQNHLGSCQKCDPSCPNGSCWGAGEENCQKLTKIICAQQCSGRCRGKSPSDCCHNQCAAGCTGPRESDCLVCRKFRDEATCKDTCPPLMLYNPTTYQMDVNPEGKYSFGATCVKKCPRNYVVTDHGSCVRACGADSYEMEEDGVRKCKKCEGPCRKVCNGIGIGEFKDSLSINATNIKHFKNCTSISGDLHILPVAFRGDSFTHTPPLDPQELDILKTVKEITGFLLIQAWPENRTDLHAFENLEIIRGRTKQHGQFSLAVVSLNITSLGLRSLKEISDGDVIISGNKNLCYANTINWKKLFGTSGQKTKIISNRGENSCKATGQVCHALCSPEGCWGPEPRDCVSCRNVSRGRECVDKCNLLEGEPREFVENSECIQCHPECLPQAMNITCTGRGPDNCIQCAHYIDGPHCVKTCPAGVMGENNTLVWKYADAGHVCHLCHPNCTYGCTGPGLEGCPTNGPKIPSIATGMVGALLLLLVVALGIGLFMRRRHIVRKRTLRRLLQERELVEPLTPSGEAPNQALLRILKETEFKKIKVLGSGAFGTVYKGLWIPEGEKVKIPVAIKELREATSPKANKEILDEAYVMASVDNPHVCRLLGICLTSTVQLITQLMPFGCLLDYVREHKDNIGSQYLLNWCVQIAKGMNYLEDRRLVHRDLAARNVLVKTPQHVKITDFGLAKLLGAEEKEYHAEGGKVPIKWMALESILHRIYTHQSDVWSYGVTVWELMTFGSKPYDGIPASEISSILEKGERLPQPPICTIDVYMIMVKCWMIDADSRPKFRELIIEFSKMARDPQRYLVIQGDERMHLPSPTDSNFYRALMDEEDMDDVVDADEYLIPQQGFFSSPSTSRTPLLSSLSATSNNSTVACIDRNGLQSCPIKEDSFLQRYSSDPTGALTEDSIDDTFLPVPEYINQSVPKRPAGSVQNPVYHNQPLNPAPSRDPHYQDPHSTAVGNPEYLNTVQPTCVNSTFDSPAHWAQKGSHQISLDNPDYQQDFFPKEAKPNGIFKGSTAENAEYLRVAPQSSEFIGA

SMILES: N#CC1=C(N)N(c2cccnc2)C2=C(C(=O)CCC2)C1c1cc2cc(Cl)ccc2n2nnnc12 (stereo not drawn)
- pIC50 (A549): 5.11
- pIC50 (HepG2): 5.23

SMILES: Cc1ccc2c(c1)cc(C1C(C#N)=C(N)N(c3cccnc3)C3=C1C(=O)CCC3)c1nnnn12 (stereo not drawn)
- pIC50 [1]: 4.83
- pIC50 [2]: 4.98
- pIC50 (A549): 4.74
- pIC50 (HepG2): 4.79

SMILES: COC(=O)C1=C(N)N(c2cccnc2)C2=C(C(=O)CCC2)C1c1cc2cc(C)ccc2n2nnnc12 (stereo not drawn)
- pIC50 [1]: 5.28
- pIC50 [2]: 5.37
- pIC50 (A549): 5.27
- pIC50 (HepG2): 5.72

SMILES: COc1ccc2c(c1)cc(C1C(C#N)=C(N)N(c3cccnc3)C3=C1C(=O)CCC3)c1nnnn12 (stereo not drawn)
- pIC50 [1]: 5.05
- pIC50 [2]: 5.27
- pIC50 (A549): 4.64
- pIC50 (HepG2): 4.67

SMILES: CCOC(=O)C1=C(N)N(c2cccnc2)C2=C(C(=O)CCC2)C1c1cc2ccccc2n2nnnc12 (stereo not drawn)
- pIC50 [1]: 6.70
- pIC50 [2]: 7.05
- pIC50 (A549): 6.40
- pIC50 (HepG2): 7.00

SMILES: N#CC1=C(N)N(c2cccnc2)C2=C(C(=O)CCC2)C1c1cc2ccccc2n2nnnc12 (stereo not drawn)
- pIC50 [1]: 5.28
- pIC50 [2]: 5.32
- pIC50 (A549): 4.89
- pIC50 (HepG2): 4.96

SMILES: COC(=O)C1=C(N)N(c2cccnc2)C2=C(C(=O)CCC2)C1c1cc2cc(OC)ccc2n2nnnc12 (stereo not drawn)
- pIC50 [1]: 5.68
- pIC50 [2]: 5.89
- pIC50 (A549): 5.19
- pIC50 (HepG2): 5.22

SMILES: COC(=O)C1=C(N)N(c2cccnc2)C2=C(C(=O)CCC2)C1c1cc2cc(Cl)ccc2n2nnnc12 (stereo not drawn)
- pIC50 [1]: 5.05
- pIC50 [2]: 5.09
- pIC50 (A549): 7.00
- pIC50 (HepG2): 5.89

SMILES: C#Cc1cccc(Nc2ncnc3cc(OCCOC)c(OCCOC)cc23)c1 [ERLOTINIB]
- pIC50 (A549): 7.00
- pIC50 (HepG2): 7.00

SMILES: CCOC(=O)C1=C(N)N(c2cccnc2)C2=C(C(=O)CCC2)C1c1cc2cc(Cl)ccc2n2nnnc12 (stereo not drawn)
- pIC50 [1]: 4.64
- pIC50 [2]: 4.78
- pIC50 (A549): 5.89
- pIC50 (HepG2): 5.26

SMILES: CCOC(=O)C1=C(N)N(c2cccnc2)C2=C(C(=O)CCC2)C1c1cc2cc(OC)ccc2n2nnnc12 (stereo not drawn)
- pIC50 [1]: 6.10
- pIC50 [2]: 6.70
- pIC50 (A549): 4.81
- pIC50 (HepG2): 4.74

SMILES: COC(=O)C1=C(N)N(c2cccnc2)C2=C(C(=O)CCC2)C1c1cc2ccccc2n2nnnc12 (stereo not drawn)
- pIC50 [1]: 5.72
- pIC50 [2]: 5.96
- pIC50 (A549): 5.96
- pIC50 (HepG2): 5.82

SMILES: CCOC(=O)C1=C(N)N(c2cccnc2)C2=C(C(=O)CCC2)C1c1cc2cc(C)ccc2n2nnnc12 (stereo not drawn)
- pIC50 [1]: 5.39
- pIC50 [2]: 5.15
- pIC50 (A549): 5.07
- pIC50 (HepG2): 5.15
